Patent US20060264460A1 (Wyeth, priority 2005, published 2006)
Blank lines part the entries; values can stand above or below the molecule they belong to.

Molecular target: T1, human Cot/Tpl2 kinase (Homo sapiens, UniProt P41279)
T1 construct: human Cot/Tpl2 kinase construct encoding residues 30-398; 6His (N); made in house; host or cells: Sf9 insect cells, baculovirus system (BD Biosciences)
Experiment: Tpl2/Cot kinase assay: GST-MEK1 phosphorylation detected by ELISA (DELFIA Eu)
Type: biochemical
Summary of the method: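 His-tagged human Tpl2 from Sf9 cells, Ni-affinity and size-exclusion purified (monomer). 0.4 nM Tpl2 with 35 nM GST-MEK1, 50 uM ATP, MOPS pH 7.2, 1% DMSO, 1 h at 30° C; EDTA stop. MEK1 Ser217/221 phosphorylation detected by anti-phospho-MEK1 and Eu-labelled secondary ELISA; IC50 fitted.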

[1] = 0.4 nM Tpl2, 35 nM GST-MEK1, 50 uM ATP, 1 h at 30° C.
[2] = Tpl2/Cot kinase, GST-MEK1 substrate, 50 uM ATP
[3] = Table 2, Tpl2/Cot kinase, GST-MEK1 substrate, 50 uM ATP
[4] = Tpl2/Cot kinase, GST-MEK1 substrate, 50 uM ATP, 1 h at 30° C., Table 2

T1 sequence (P41279 30-398): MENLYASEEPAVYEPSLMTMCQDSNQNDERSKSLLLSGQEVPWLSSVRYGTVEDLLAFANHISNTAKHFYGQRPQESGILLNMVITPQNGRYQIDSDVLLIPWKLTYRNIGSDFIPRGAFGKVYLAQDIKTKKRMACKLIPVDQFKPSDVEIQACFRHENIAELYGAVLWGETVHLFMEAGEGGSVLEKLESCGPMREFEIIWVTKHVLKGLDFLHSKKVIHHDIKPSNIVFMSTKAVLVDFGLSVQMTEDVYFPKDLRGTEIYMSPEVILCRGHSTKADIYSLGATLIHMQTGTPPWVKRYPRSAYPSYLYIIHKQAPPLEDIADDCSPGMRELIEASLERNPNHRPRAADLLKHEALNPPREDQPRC

Compound: CCN(C[C@@H]1CCCN1CC)c1cc(Cl)c2ncc(C#N)c(Nc3ccc(F)c(Cl)c3)c2c1 [Example 811]
IC50 [2]: 1200 nM

Compound: CN(Cc1cn(CCC2CCCN2C)nn1)c1cc(Cl)c2ncc(C#N)c(Nc3ccc(F)c(Cl)c3)c2c1 (centres unmarked) [Example 321, 8-chloro-4-(3-chloro-4-fluorophenylamino)-6-(methyl((1-(2-(1-methylpyrrolidin-2-yl)ethyl)-1H-1,2,3-triazol-4-yl)methyl)amino)quinoline-3-carbonitrile]
IC50 [1]: 490 nM

Compound: CC(C)(C)OC(=O)N1CCC(Cn2cc(CNc3cc(Br)c4ncc(C#N)c(Nc5ccc(F)c(Cl)c5)c4c3)nn2)CC1 [Example 494]
IC50 [3]: 170 nM

Compound: N#Cc1cnc2c(Cl)cc(NC3CCCC3n3cc(CCO)nn3)cc2c1Nc1ccc(F)c(Cl)c1 (centres unmarked) [Example 635]
IC50 [3]: 67 nM

Compound: C[C@H](Nc1ccc2ncc(C#N)c(Nc3ccc(F)c(Cl)c3)c2c1)c1ccccn1 [Example 173, (S)-4-(3-chloro-4-fluorophenylamino)-6-(1-(pyridin-2-yl)ethylamino)quinoline-3-carbonitrile]
IC50 [1]: > 40000 nM

Compound: Cc1cc2ncc(C#N)c(Nc3ccc(F)c(Cl)c3)c2cc1NCCN1CCOCC1 [Example 227, 4-[(3-chloro-4-fluorophenyl)amino]-7-methyl-6-[(2-morpholin-4-ylethyl)amino]quinoline-3-carbonitrile]
IC50 [1]: > 40000 nM

Compound: CC(C)(C)OC(=O)N1CCC(n2cc(CNc3cc(Cl)c4ncc(C#N)c(NC5CCCC6(CCCC6)C5)c4c3)nn2)CC1 (centres unmarked) [Example 974]
IC50 [4]: > 3000 nM

Compound: CN1CCCC1CCn1cc(CNc2ccc3ncc(C#N)c(NC4CCCCC4)c3c2)nn1 (centres unmarked) [Example 967]
IC50 [4]: 460 nM

Compound: N#Cc1cnc2ccc(NCC3CCCNC3)cc2c1Nc1ccc(F)c(Cl)c1 (centres unmarked) [Example 64, 4-(3-Chloro-4-fluoro-phenylamino)-6-[(piperidin-3-ylmethyl)-amino]-quinoline-3-carbonitrile]
IC50 [1]: > 40000 nM

Compound: CC(C)(C)OC(=O)N1CCC(n2cc(CNc3ccc4ncc(C#N)c(NC5CCCCC5)c4c3)nn2)CC1 [Example 968]
IC50 [4]: 670 nM

Compound: CCNC(=O)N1CCN(CCn2cc(CNc3cc(Cl)c4ncc(C#N)c(Nc5ccc(F)c(Cl)c5)c4c3)nn2)CC1 [Example 962]
IC50 [4]: 23 nM

Compound: CS(=O)(=O)c1cccc(CNc2ccc3ncc(C#N)c(NC4CCCC4)c3c2)c1 [Example 414]
IC50 [3]: 2900 nM

Compound: N#Cc1cnc2c(Cl)cc(NCc3cn(CCN4CCCCCC4)nn3)cc2c1NC1CCC1 [Example 955]
IC50 [4]: 440 nM

Compound: CN(C)Cc1cc(NCc2cccnc2)cc2c(Nc3cccc(Br)c3)c(C#N)cnc12 [Example 124, 4-(3-bromophenylamino)-8-((dimethylamino)methyl)-6-(pyridin-3-ylmethylamino)quinoline-3-carbonitrile]
IC50 [1]: > 10000 nM

Compound: CC(C)(C)OC(=O)N1CCCC(n2cc(CNc3cc(Cl)c4ncc(C#N)c(Nc5ccc(F)c(Cl)c5)c4c3)nn2)CC1 (centres unmarked) [Example 1006]
IC50 [4]: 240 nM

Compound: Cc1cc(N)cc2c(Nc3cccc(Br)c3)c(C#N)cnc12 [Example 125, 6-amino-4-(3-bromophenylamino)-8-methylquinoline-3-carbonitrile]
IC50 [1]: 11000 nM

Compound: N#Cc1cnc2c(Cl)cc(NCc3cn(CCC4CCN(CC5CC5)CC4)nn3)cc2c1Nc1ccc(F)c(Cl)c1 [Example 936]
IC50 [4]: 130 nM

Continued, values first:

IC50 [1]: 68 nM
Compound: N#Cc1cnc2c(Cl)cc(NCCc3nnn[nH]3)cc2c1Nc1ccc(F)c(Cl)c1 [Example 200, 8-chloro-4-[(3-chloro-4-fluorophenyl)amino]-6-{[2-(1H-tetrazol-5-yl)ethyl]amino}quinoline-3-carbonitrile]

IC50 [2]: 0.9 nM
Compound: N#Cc1cnc2c(Cl)cc(NCc3cn(CCc4ccncc4)nn3)cc2c1Nc1ccc(F)c(Cl)c1 [Example 918]

IC50 [1]: 203 nM
Compound: COc1ccc(Cn2cc(CNc3cc(Br)c4ncc(C#N)c(Nc5ccc(F)c(Cl)c5)c4c3)nn2)cc1 [Example 289]

IC50 [1]: 410 nM
Compound: N#Cc1cnc2ccc(NCc3cccnc3)cc2c1Nc1ccc(F)c(Cl)c1 [Example 37, 4-(3-Chloro-4-fluoro-phenylamino)-6-[(pyridin-3-ylmethyl)-amino]-quinoline-3-carbonitrile]

IC50 [3]: 170 nM
Compound: C=Cc1cc(NCc2cnc[nH]2)cc2c(Nc3ccc(F)c(Cl)c3)c(C#N)cnc12 [Example 457]

IC50 [2]: 2400 nM
Compound: N#Cc1cnc2c(Cl)cc(NCC(=O)Nc3ccncc3)cc2c1Nc1ccc(F)c(Cl)c1 [Example 774]

IC50 [1]: 6400 nM
Compound: N#Cc1cnc2ccc(NCc3cccc(Oc4ccccc4)c3)cc2c1Nc1ccc(F)c(Cl)c1 [Example 150, 6-(3-phenoxybenzylamino)-4-(3-chloro-4-fluorophenylamino)quinoline-3-carbonitrile]

IC50 [2]: > 3000 nM
Compound: N#Cc1cnc2c(Cl)cc(NCCNC(=O)c3ccccn3)cc2c1Nc1ccc(F)c(Cl)c1 [Example 859]

IC50 [2]: > 3000 nM
Compound: CN1CCCC1CCNC(=O)CNc1cc(Cl)c2ncc(C#N)c(Nc3ccc(F)c(Cl)c3)c2c1 (centres unmarked) [Example 781]

IC50 [1]: 28 nM
Compound: Cn1cc(CNc2cc(Br)c3ncc(C#N)c(Nc4ccc(F)c(Cl)c4)c3c2)nn1 [Example 221, 8-bromo-4-(3-chloro-4-fluorophenylamino)-6-((1-methyl-1H-1,2,3-triazol-4-yl)methylamino)quinoline-3-carbonitrile]

IC50 [2]: 220 nM
Compound: N#Cc1cnc2c(Cl)cc(NCC3CC3C(=O)O)cc2c1Nc1ccc(F)c(Cl)c1 (centres unmarked) [Example 886]

IC50 [2]: > 3000 nM
Compound: N#Cc1cnc2c(Cl)cc(NCc3cn(COCc4ccccc4)nn3)cc2c1Nc1ccc(F)c(Cl)c1 [Example 807]

IC50 [1]: 18 nM
Compound: N#Cc1cnc2c(Cl)cc(NCc3cccc[n+]3[O-])cc2c1Nc1ccc(F)c(Cl)c1 [Example 182, 8-chloro-4-[(3-chloro-4-fluorophenyl)amino]-6-{[(1-oxidopyridin-2-yl)methyl]amino}quinoline-3-carbonitrile]

IC50 [2]: 60 nM
Compound: CC(=O)N(CCNc1cc(Cl)c2ncc(C#N)c(Nc3ccc(F)c(Cl)c3)c2c1)Cc1ccncc1 [Example 844]

IC50 [1]: 200 nM
Compound: Cc1cc(CNc2ccc3ncc(C#N)c(Nc4ccc(F)c(Cl)c4)c3c2)n(C)n1 [Example 33, 4-(3-Chloro-4-fluoro-phenylamino)-6-[(2,5-dimethyl-2H-pyrazol-3-ylmethyl)-amino]-quinoline-3-carbonitrile]

IC50 [1]: 23 nM
Compound: CS(=O)(=O)c1nccc(CNc2cc(Cl)c3ncc(C#N)c(Nc4ccc(F)c(Cl)c4)c3c2)n1 [Example 282, 8-Chloro-4-[(3-chloro-4-fluorophenyl)amino]-6-({[2-(methylsulfonyl)pyrimidin-4-yl]methyl}amino)quinoline-3-carbonitrile]

IC50 [1]: 12 nM
Compound: Cn1ccnc1CNc1cc(F)c2ncc(C#N)c(Nc3ccc(F)c(Cl)c3)c2c1 [Example 268, 4-[(3-Chloro-4-fluorophenyl)amino]-8-fluoro-6-{[(1-methyl-1H-imidazol-2-yl)methyl]amino}quinoline-3-carbonitrile]

IC50 [3]: 3.1 nM
Compound: N#Cc1cnc2c(Br)cc(NCc3cn(Cc4cccnc4)cn3)cc2c1Nc1ccc(F)c(Cl)c1 [Example 533]

IC50 [3]: 51 nM
Compound: N#Cc1cnc2c(I)cc(NCc3cnc[nH]3)cc2c1Nc1ccc(F)c(Cl)c1 [Example 452]

IC50 [2]: 1.3 nM
Compound: N#Cc1cnc2c(Cl)cc(NCc3cn(CCCNS(=O)(=O)C(F)(F)F)nn3)cc2c1Nc1ccc(F)c(Cl)c1 [Example 906]

IC50 [2]: 45 nM
Compound: CC(C)CN(CCCn1cc(CNc2cc(Cl)c3ncc(C#N)c(Nc4ccc(F)c(Cl)c4)c3c2)nn1)CC(C)C [Example 913]
